# What was measured:
# [1] = system: OSC differentiation into oocytes; test: GCV treatment of transgenic mice with Stra8 promoter-driven HSVtk; counts of oocyte-containing primordial follicles; format: in vivo
# Procedure: FIGS. 2A-D are graphs that show the OSCs of aged mice lose the ability to support primordial follicle formation. Transgenic mice, ranging from 2-11 months, having an inducible “suicide gene” (herpes simplex virus thymidine kinase or HSVtk) that specifically disrupts OSC differentiation into oocytes only in the presence of the HSVtk pro-drug ganciclovir (GCV), were tested for their ability to lose and regain their oocyte reserves after activation and deactivation of the suicide gene, respectively.
# Animals and treatments. Transgenic pStra8-Gfp mice with expression of green fluorescent protein (GFP) driven by the promoter of the meiosis commitment gene, stimulated by retinoic acid gene 8 (Stra8;) mice were generated as described in Imudia et al., Fertil Steril, 100:1451-1458 (2013). Transgenic mice with herpes simplex virus thymidine kinase (HSVtk) expression driven by the Stra8 promoter were generated by replacing the GFP-coding sequence in the pStra8-Gfp construct with cDNA encoding GFP-fused HSVtk and the constructs were then sent to Genoway for generation of the transgenic lines, as described (Imudia et al., Fertil Steril, 100:1451-1458 (2013). For comparative studies, wild type and transgenic siblings from breeding colonies were used in parallel to rule out any potential effect of background strain on the outcomes. For treatments, the HSVtk pro-drug, ganciclovir (GCV; Roche), was dissolved in sterile water at 10 mg/ml, and then diluted in sterile 1×-concentrated phosphate-buffered saline (PBS) for daily dosing (10 mg/kg for 21 days, intraperitoneal injection). Control animals were injected with vehicle (PBS) in parallel.
# Oocyte counts. Prior to the start of PBS or GCV injections, 21 days after daily dosing with GCV, and 21 days after ceasing GCV treatment, ovaries were collected from mice at the indicated ages, fixed, embedded in paraffin, and serially sectioned for histomorphometry-based quantification of the number of oocyte-containing primordial follicles, as detailed (Jones and Krohn, J Endocrinol, 21:469-495 (1961); Johnson et al., Nature, 428:145-150 (2004); and Wang and Tilly, Cell Cycle, 9:339-349 (2010)). All samples were assessed in a completely blinded fashion, and reproducibility was independently confirmed with randomly selected slides by a second observer. In all cases, variation in counts between observers was less than 7%.
# [2] = system: FACS-purified Fox12-DsRed-positive cells; test: Estradiol and progesterone production by FACS-purified Fox12-DsRed-positive cells (ELISA of culture medium); format: cell-based, mouse; details: FSH 100 ng/ml or 8-br-cAMP 1 mM; cultured 24, 48 or 72 hours; versus vehicle (PBS) control; cells isolated on day 12 of ESC differentiation
# Procedure: (§1) FIG. 5A is a graph showing estradiol production by FACS-purified Fox12-DsRed positive cells (2×10^3 cells per well), which spontaneously differentiated in embryonic stem cell cultures, maintained in culture for up to 3 days (FSH, 100 ng/ml; 8-br-cAMP, 1 mM). Data are the mean±SEM of 3 independent cultures (*, P<0.05 versus vehicle control).
# as §1, with “5B” for “5A”, “progesterone” for “estradiol”
# To identify and track ovarian somatic cells in differentiating ESC cultures, the expression of the early granulosa cell marker, Fox12, in differentiating ESC cultures was mapped. […] A 739 by region of the Fox12 gene promoter was identified using Genome Vista. The region was isolated from mouse genomic DNA and cloned into the pDsRed2-1 vector (Clontech, Mountain View, Calif.,) or the pLenti6 lentiviral construct containing the complete open reading frame of DsRed (Gateway Lentiviral System; Invitrogen), thus creating a DsRed expression vector under control of the Fox12 gene promoter.
# Promoter activity and specificity were verified using mouse granulosa cells as a positive control and 293 cells (Invitrogen) as a negative control. To verify the Fox12 gene promoter-driven DsRed expression, undifferentiated TgOG2 ESCs were stably transfected with the Fox12-pDsRed2-1 construct via electroporation, followed by clonal selection and expansion. Alternatively, ESCs were virally transduced following initiation of differentiation using viral supernatant produced by 293 cells transfected with the Fox12-DsRed lentiviral construct (pLenti6-Fox12-DsRed). Cells were analyzed for expression of DsRed by fluorescence microscopy and isolated by fluorescence-activated cell sorting (FACS).
# For FACS, differentiating ESCs were removed from the plate by either 0.25% trypsin-EDTA (prior to day 10 of differentiation) or manually scraped. […] The cells were analyzed and sorted using a FACS Aria flow cytometer (BD Biosciences, San Jose, Calif.).
# Estradiol and progesterone concentrations were measured in culture medium from FACS-purified Fox12-DsRed-positive cells that had been re-plated and cultured for 24, 48 or 72 hours in the presence of PBS (vehicle), 100 ng/ml follicle stimulating hormone (FSH; NIDDK, NIH, Bethesda, Md.) or 1 mM 8-bromoadenosine-3′,5′-cyclic monophosphate (8-br-cAMP; Sigma-Aldrich). […]
Compound,"response of primordial follicle pool to GCV treatment ([1]; advanced aged mice, 10-11 months of age, 10 mg/kg daily for 21 days, intraperitoneal)","primordial follicle reserve after GCV treatment ([1]; middle-age adult mice, 5-6 months of age, 10 mg/kg daily for 21 days, intraperitoneal)","time for primordial follicle pool to regenerate back to control (PBS, vehicle) levels after ceasing GCV treatment ([1]; young adult (2-3 months) and middle-age (5-6 months) mice) [days]","primordial follicle reserve after GCV treatment ([1]; young adult mice, 2-3 months of age, 10 mg/kg daily for 21 days, intraperitoneal)",estradiol production [2],progesterone production [2]
"Nc1nc(O)c2ncn(COC(CO)CO)c2n1 [GCV, ganciclovir]",completely refractory,reduced primordial follicle reserve,≤ 21,reduced primordial follicle reserve,–,–
follicle stimulating hormone [FSH],–,–,–,–,significant increase,only 8-br-cAMP was able to significantly enhance
"Nc1ncnc2c1nc(Br)n2[C@@H]1O[C@@H]2COP(=O)(O)O[C@H]2[C@H]1O [8-br-cAMP, 8-bromoadenosine-3′,5′-cyclic monophosphate]",–,–,–,–,significant increase,significantly enhance

# Reference: patent publication US20160237402A1, “Methods and Compositions for Ex Vivo Generation of Developmentally Competent Eggs from Germ Line Cells Using Autologous Cell Systems” (NORTHEASTERN UNIVERSITY, priority 2013, published 2016)
